Measurements taken from patent US20060252733A1, “Betulin, betulin derivatives, betulinic acid and betulinic acid derivatives as novel therapeutics in the treatment of disease of lipid and/or glucose metabolism” (Novelix Pharmaceuticals, Inc., priority 2005, published 2006).
Converted amounts (≈) assume the structure as drawn. “And” between values parts separate entries of the source, which are not always exact repeats. Equal values may be shown once.

Assays:
[1] = test system: hepatic low density lipoprotein (LDL) receptors; conditions: animals; by increasing the expression of hepatic LDL receptors; cited from earlier work
[2] = test system: human lung cancer cell line (A549); test: Global gene expression analysis (Affymetrix gene chips) after NVX-207 treatment; assay type: cell-based
Procedure: For global gene expression analysis, total RNA was isolated from sub-confluent cell cultures at 4 and 14 hours after addition of NVX-207. […] For each time point and concentration, respectively, total RNA form 3 equally treated cultures was pooled and used for gene chip analysis. The experiment was repeated once. Four and 14 hours after addition of NVX-207, cells were washed with PBS and lysed directly in the culture dish with RNA-Bee according to the manufacturers instructions. Total RNA was then analyzed by using Affymetrix gene chips according to the manufacturers instructions.

[3] = test system: human lung cancer cell line (A549); test: NVX-207 IC50/IC80 concentrations in A549 cell cultures; assay type: cell-based; conditions: A549 cells
[4] = test system: human melanoma cell line (518A2); test: Cell survival (cell counts) after 3 days of treatment; conditions: for Survival in % / Survival (%): 3 days, vs untreated controls (=100%)
Procedure: Induction of cell death was evaluated in a human melanoma cell line (518A2) in the presence of simvastatin and NVX-207 alone or in combination. […] After 3 days of treatment, cell numbers were counted. Percentages of survival given are cell numbers compared to untreated controls (=100%). Experiments were repeated three times. Mean values are given.

Apolipoprotein A1 = molecular target: T1, Apolipoprotein A1 (Bos taurus, UniProt P15497); test: Identification of NVX-207 binding proteins (Sulfo-SBED biotin label transfer, 2-D gel, MALDI-TOF-MS); conditions: Fetal Calf Serum, NVX-207 coupled to Sulfo-SBED at 5 μg/ml, with or without 20-fold molar excess of unlabeled NVX-207
T1 construct: from tissue; host or cells: fetal calf serum
T1 sequence (P15497 25-265 limits assumed): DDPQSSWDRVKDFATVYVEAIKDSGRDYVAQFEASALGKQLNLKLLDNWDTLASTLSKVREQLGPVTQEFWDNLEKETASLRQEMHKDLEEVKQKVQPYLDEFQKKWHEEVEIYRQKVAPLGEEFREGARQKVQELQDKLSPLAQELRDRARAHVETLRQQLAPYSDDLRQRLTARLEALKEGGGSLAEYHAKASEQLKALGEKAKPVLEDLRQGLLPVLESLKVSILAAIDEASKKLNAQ
Excerpt: The presence of a primary amine group on NVX-207, a unique feature of this derivative compared to other known betulinic acid derived compounds, allows the coupling of other chemical compounds. A commercially available kit from Pierce was used to couple NVX-207 with biotin (Pierce-Sulfo-BED). This procedure allows the identification of NVX-207 binding proteins in protein lysates from any source. This procedure is generically illustrated in FIG. 2. In short, the amine groups of NVX-207 are modified via the Sulfo-NHS moiety of Sulfo-SBED. This derivatized NVX-207 is then incubated in the dark with a lysate or with a purified putative “prey” protein. The bait and prey complex is then captured or trapped by exposing the sample to high-intensity UV light, which activates the phenylazide moiety of Sulfo-SBED. This photoreactive group covalently links to the bound prey protein, capturing the interacting complex. […] The resulting biotin derivatized complex or prey protein can be detected using streptavidin-HRP or an anti-biotin antibody and chemiluminescent detection. […]
NVX-207 (at 5 μg/ml final concentration) coupled to […] with or without a 20-fold molar excess of unlabeled NVX-207 and resolved by 2-D gel electrophoresis. […] Several spots of similar molecular weight (˜24 kDa) and differing IP (in the range of 4.8 to 5.6) were detected by streptavidin-POD after 2-dimensional (2-D) gel electrophoresis.

For `C=CC[C@@H]1[C@H](O)CC[C@@]2(C)[C@H]1CC[C@@H]1[C@@H]2CC[C@]2(C)[C@@H]([C@H](C)CCCC(C)C)CC[C@@H]12` [LY295427], the plasma cholesterol levels [1] is given as “reduce plasma cholesterol levels”.

With `C=C(C)[C@@H]1CC[C@]2(C(=O)OCC(N)(CO)CO)CC[C@]3(C)[C@H](CC[C@@H]4[C@@]5(C)CC[C@H](OC(C)=O)C(C)(C)[C@@H]5CC[C@]43C)[C@@H]12` [NVX-207] the “expression of the Table 1 genes with a functional role in lipid and/or glucose metabolism” value ([2]; 20 listed genes incl. LDL receptor, Insulin induced gene 1, 3-hydroxy-3-methylglutaryl-Coenzyme A reductase) was “NVX-207-Upregulated Genes with a Functional Role in Lipid”, the Fold-Induction ([2]; gene: 3-hydroxy-3-methylglutaryl-Coenzyme A synthase 1 (soluble)) was 1.63 and the Fold-Induction ([2]; gene: 24-dehydro-cholesterol reductase) was 1.25. For the same molecule, the Fold-Induction ([2]; gene: 216814_at) was 0.86, the Fold-Induction ([2]; gene: ALEX3 protein) was 1.20 and the Fold-Induction ([2]; gene: ATP synthase, H+ transporting, mitochondrial F0 complex, subunit s (factor B)) was 0.87. It also gave a Fold-Induction ([2]; gene: Acetyl-Coenzyme A acetyltransferase 2 (acetoacetyl Coenzyme A thiolase)) of 1.44, a Fold-Induction ([2]; gene: Adenylate cyclase 9) of 1.50 and a Fold-Induction ([2]; gene: Ankyrin repeat domain 6) of 1.48. For the same molecule, the Fold-Induction ([2]; gene: Apoptosis inhibitor 5) was 1.21, the Fold-Induction ([2]; gene: Choline kinase) was 1.16 and the Fold-Induction ([2]; gene: Chromosome 22 open reading frame 20) was 1.56. The Fold-Induction ([2]; gene: Cyclic nucleotide gated channel alpha 1) was 0.79, the Fold-Induction ([2]; gene: D15F37 (pseudogene)) was 1.39 and the Fold-Induction ([2]; gene: DEAD (Asp-Glu-Ala-Asp) box polypeptide 54) was 0.66. The Fold-Induction ([2]; gene: Exportin 6) was 0.89, the Fold-Induction ([2]; gene: Farnesyl-diphosphate farnesyltransferase 1) was 1.89 and the Fold-Induction ([2]; gene: Fatty-acid-Coenzyme A ligase, long-chain 3) was 1.31. It also gave a Fold-Induction ([2]; gene: Glyoxalase I) of 1.12, a Fold-Induction ([2]; gene: H63 breast cancer expressed gene) of 0.66 and a Fold-Induction ([2]; gene: HMT1 hnRNP methyltransferase-like 1) of 0.62. It also gave a Fold-Induction ([2]; gene: Haspin) of 0.92, a Fold-Induction ([2]; gene: Heterogeneous nuclear ribonucleoprotein A2/B1) of 1.30 and a Fold-Induction ([2]; gene: Homeo box B2) of 1.26. It also gave a Fold-Induction ([2]; gene: Homo sapiens cDNA FLJ11590 fis, clone HEMBA1003758.) of 1.56, a Fold-Induction ([2]; gene: Homo sapiens cDNA FLJ12075 fis, clone HEMBB1002425.) of 1.50 and a Fold-Induction ([2]; gene: Homo sapiens cDNA FLJ12932 fis, clone NT2RP2004897.) of 1.55. It also gave a Fold-Induction ([2]; gene: Homo sapiens cDNA FLJ13272 fis, clone OVARC1001004.) of 1.58, a Fold-Induction ([2]; gene: Homo sapiens cDNA FLJ26120 fis, clone SYN00419) of 2.26 and a Fold-Induction ([2]; gene: Homo sapiens cDNA FLJ33420 fis, clone BRACE2020028.) of 1.41. The Fold-Induction ([2]; gene: Homo sapiens cDNA FLJ46153 fis, clone TESTI4001037) was 0.81, the Fold-Induction ([2]; gene: Homo sapiens cDNA: FLJ23159 fis, clone LNG09628) was 1.44 and the Fold-Induction ([2]; gene: Homo sapiens full length insert cDNA clone ZE03A06) was 0.70. The Fold-Induction ([2]; gene: Homo sapiens mRNA, cDNA DKFZp586O031 (from clone DKFZp586O031)) was 1.13, the Fold-Induction ([2]; gene: Homo sapiens mRNA, cDNA DKFZp686L01105 (from clone DKFZp686L01105)) was 2.37 and 2.09 and 1.73 and the Fold-Induction ([2]; gene: Homo sapiens mRNA, cDNA DKFZp779K0112 (from clone DKFZp779K0112)) was 1.48. For the same molecule, the Fold-Induction ([2]; gene: Homo sapiens transcribed sequence with weak similarity to protein ref: NP_060265.1) was 1.46 and 1.22, the Fold-Induction ([2]; gene: Homo sapiens, clone IMAGE: 5314747, mRNA) was 1.77 and the Fold-Induction ([2]; gene: Homo sapiens, clone IMAGE: 6205812, mRNA) was 1.85. It also gave a Fold-Induction ([2]; gene: Hypothetical protein BC008207) of 0.86, a Fold-Induction ([2]; gene: Hypothetical protein DKFZp761A132) of 0.70 and a Fold-Induction ([2]; gene: Hypothetical protein FLB8034 PRO2158) of 1.45. It also gave a Fold-Induction ([2]; gene: Hypothetical protein FLJ10997 (ZNF654 zinc finger protein 654 [Homo sapiens])) of 1.16, a Fold-Induction ([2]; gene: Hypothetical protein FLJ11577) of 1.35 and a Fold-Induction ([2]; gene: Hypothetical protein FLJ13611) of 1.39. It also gave a Fold-Induction ([2]; gene: Hypothetical protein FLJ14639) of 1.24, a Fold-Induction ([2]; gene: Hypothetical protein FLJ38499) of 1.32 and a Fold-Induction ([2]; gene: Hypothetical protein LOC125893) of 1.34. The Fold-Induction ([2]; gene: Hypothetical protein LOC126661) was 1.49, the Fold-Induction ([2]; gene: Hypothetical protein LOC283680) was 1.26 and the Fold-Induction ([2]; gene: Hypothetical protein MAC30) was 1.46. The Fold-Induction ([2]; gene: Hypothetical protein MGC34695) was 1.61, the Fold-Induction ([2]; gene: Hypothetical protein PRO1496) was 1.46 and the Fold-Induction ([2]; gene: Insulin induced gene 1) was 2.56. The Fold-Induction ([2]; gene: Isopentenyl-diphosphate delta isomerase) was 1.78, the Fold-Induction ([2]; gene: Jerky homolog-like (mouse)) was 1.23 and the Fold-Induction ([2]; gene: KIAA0101 gene product) was 1.23. The Fold-Induction ([2]; gene: KIAA0335 gene product) was 1.38, the Fold-Induction ([2]; gene: KIAA1450 protein) was 1.21 and the Fold-Induction ([2]; gene: Latrophilin 3) was 0.77. It also gave a Fold-Induction ([2]; gene: Lipin 1) of 1.88, a Fold-Induction ([2]; gene: Low density lipoprotein receptor (familial hypercholesterolemia)) of 1.78 and a Fold-Induction ([2]; gene: Machado-Joseph disease (spinocerebellar ataxia 39)) of 1.45. The Fold-Induction ([2]; gene: Melan-A) was 0.60, the Fold-Induction ([2]; gene: Mitochondrial ribosomal protein L30) was 1.42 and the Fold-Induction ([2]; gene: Mucin 4, tracheobronchial) was 0.79. The Fold-Induction ([2]; gene: Mucolipin 3) was 1.39, the Fold-Induction ([2]; gene: Natural killer-tumor recognition sequence) was 1.45 and 1.28 and the Fold-Induction ([2]; gene: Neurolysin (metallopeptidase M3 family)) was 1.41. For the same molecule, the Fold-Induction ([2]; gene: Nicotinamide nucleotide adenylyltransferase 2) was 0.73, the Fold-Induction ([2]; gene: Pantothenate kinase 3) was 1.23 and the Fold-Induction ([2]; gene: Phorbol-12-myristate-13-acetate-induced protein 1) was 1.26. The Fold-Induction ([2]; gene: Phosphodiesterase 4A, cAMP-specific (phosphodiesterase E2 dunce homolog, Drosophila)) was 0.78, the Fold-Induction ([2]; gene: Pinin, desmosome associated protein) was 1.17 and the Fold-Induction ([2]; gene: Protocadherin 11 Y-linked) was 1.37. The Fold-Induction ([2]; gene: Putative translation initiation factor) was 1.14, the Fold-Induction ([2]; gene: Pyruvate dehydrogenase phosphatase isoenzyme 2) was 1.40 and the Fold-Induction ([2]; gene: Receptor-interacting factor 1) was 1.10. For the same molecule, the Fold-Induction ([2]; gene: Ring finger protein 125 (T-cell RING activation protein 1, TRAC-1)) was 3.36, the Fold-Induction ([2]; gene: SKI-interacting protein) was 1.10 and the Fold-Induction ([2]; gene: SOCS box-containing WD protein SWiP-1) was 1.20. The Fold-Induction ([2]; gene: SP140 nuclear body protein) was 0.78, the Fold-Induction ([2]; gene: SPTF-associated factor 65 gamma) was 0.69 and the Fold-Induction ([2]; gene: Solute carrier family 2 (facilitated glucose transporter), member 6) was 1.76. For the same molecule, the Fold-Induction ([2]; gene: Solute carrier family 7, (cationic amino acid transporter, y+ system) member 11) was 1.67, the Fold-Induction ([2]; gene: Squalene epoxidase) was 1.60 and the Fold-Induction ([2]; gene: Stearoyl-CoA desaturase (delta-9-desaturase)) was 1.41. It also gave a Fold-Induction ([2]; gene: Sterol-C4-methyl oxidase-like) of 1.87, a Fold-Induction ([2]; gene: Sterol-C5-desaturase (ERG3 delta-5-desaturase homolog, fungal)-like) of 1.37 and a Fold-Induction ([2]; gene: Surfactant, pulmonary-associated protein B) of 1.43. The Fold-Induction ([2]; gene: Syntaxin 16) was 0.86, the Fold-Induction ([2]; gene: Thyroid hormone receptor interactor 11) was 1.70 and the Fold-Induction ([2]; gene: Tumor necrosis factor (ligand) superfamily, member 9) was 1.47. The Fold-Induction ([2]; gene: Ubiquitin specific protease 6 (Tre-2 oncogene)) was 1.38, the Fold-Induction ([2]; gene: Ubiquitin specific protease 32) was 1.25 and the Fold-Induction ([2]; gene: Zinc finger protein 226) was 1.46. The Fold-Induction ([2]; gene: Zinc finger protein 430) was 1.24, the “upregulation of INSIG-1” value ([2]; within 4 hours of the addition of NVX-207) was “up to 3 fold” and the IC50 [3] was 1.5 µg/mL (≈ 2.49 µM). For the same molecule, the IC80 [3] was 2.0 µg/mL (≈ 3.32 µM), the “effect on statin-induced cell death” value ([4]; 518A2 cells, in combination with simvastatin) was “reduces statin-induced cell death” and the Survival in % ([4]; NVX-207 0.5 μg/ml) was 94%. For the same molecule, the Survival in % ([4]; NVX-207 1.0 μg/ml) was 73%, the Survival in % ([4]; NVX-207 2.0 μg/ml) was 26% and the Survival in % ([4]; NVX-207 4.0 μg/ml) was 0%. For the same molecule, the “binding to Apolipoprotein A1” value (Apolipoprotein A1) was “binds to Apolipoprotein A1”.

With `CCC(C)(C)C(=O)O[C@H]1C[C@@H](C)C=C2C=C[C@H](C)[C@H](CC[C@@H]3C[C@@H](O)CC(=O)O3)[C@H]21` [Simvastatin, reference compound] the “Survival (%)” value ([4]; Simvastatin 0.5 μmol) was 96%, the “Survival (%)” value ([4]; Simvastatin 1.0 μmol) was 40% and the “Survival (%)” value ([4]; Simvastatin 2.0 μmol) was 12%. The “Survival (%)” value ([4]; Simvastatin 4.0 μmol) was 3%.
